Some test systems named below: ACHN; CCRF-CEM; HCC 2998; K562; M14; MCF7; MDA-MB-231; NCI-H23; NCI-H460; NCI-H522; OVCAR-4; OVCAR-5; PC-3; SF-295; SNB-75; T47D; UACC-257; UO-31; A549.
Test in all cases: NCI-60 cell line screen, 48 h

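Method: 48-hour compound exposure of cells in 96-well plates, five concentrations, linear interpolation of endpoints. Here, GI50 denotes the concentration required for 50% inhibition of growth.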 Activity calls are given as the source filed them. Cut-off read from the data, not from the text of the source: active = GI50 up to about 1.1 µM and inactive = higher.

Results on eleven compounds are retold here after ChEMBL document CHEMBL1201862, “PubChem BioAssay data set” (2004).

As for `O=C1O[C@H](COC(=O)c2ccccc2)[C@@H](OC(=O)c2ccccc2)C=C1OC(=O)c1ccccc1`, the GI50 was 16 µM (inactive) in the assay with ACHN; 14.1 µM (inactive) in the assay on CCRF-CEM; > 100 µM (inactive) in the assay on HCC 2998; 24.3 µM (inactive) in the assay with K562; 17.5 µM (inactive) in the assay with M14; 28.8 µM (inactive) in the assay with MCF7. For the same compound, the GI50 in the assay on MDA-MB-231 is 17.5 µM (inactive); in the assay on NCI-H23, 18.1 µM (inactive); in the assay on NCI-H460 it was 16.2 µM (inactive); in the assay with NCI-H522, 20.2 µM (inactive); in the assay with OVCAR-4, 20.9 µM (inactive); with OVCAR-5 it was 21 µM (inactive). For the same compound, the GI50 in the assay on PC-3 is 25.4 µM (inactive); in the assay with SF-295, 17.8 µM (inactive); in the assay with SNB-75, 25.8 µM (inactive); in the assay on T47D, 23.4 µM (inactive); in the assay with UACC-257 it was 25.7 µM (inactive); with UO-31, 30.9 µM (inactive).

`C#CCOCC12C=CC(O1)C1C(=O)OCC12` (stereo not given): the GI50 in the assay on A549, in the assay on ACHN, in the assay on CCRF-CEM, in the assay with HCC 2998, in the assay on K562 and in the assay with M14 was > 100 µM (inactive) each time. For the same compound, the GI50 with MCF7, in the assay on MDA-MB-231, in the assay with NCI-H23, in the assay with NCI-H460, in the assay with NCI-H522 and with OVCAR-4 was > 100 µM (inactive) in each case. The GI50 in the assay on OVCAR-5, in the assay on PC-3, in the assay with SF-295, in the assay with SNB-75, with T47D and in the assay on UACC-257 was > 100 µM (inactive) each time. Moreover, the GI50 in the assay on UO-31 is > 100 µM (inactive).

Regarding `O=C1NC(N2CCOCC2)=N/C1=C\c1ccco1`, the GI50 in the assay on A549, in the assay on ACHN, in the assay on CCRF-CEM, with HCC 2998, in the assay with M14 and in the assay on MCF7 was > 100 µM (inactive) throughout. Moreover, the GI50 with MDA-MB-231, in the assay with NCI-H23, in the assay with NCI-H522, with OVCAR-4, in the assay with OVCAR-5 and in the assay on PC-3 was > 100 µM (inactive) in each case. The GI50 with SF-295, in the assay with SNB-75, in the assay on T47D, in the assay with UACC-257 and with UO-31 was > 100 µM (inactive) throughout.

As for `O=C(O)CC(NC(=O)/C(=C/c1ccccc1)NC(=O)c1ccccc1)C(=O)O` (stereo not given), the GI50 in the assay on A549, with ACHN, with CCRF-CEM, in the assay on HCC 2998, in the assay with K562 and with M14 was > 100 µM (inactive) each time. Further, the GI50 in the assay with MCF7, in the assay on MDA-MB-231, with NCI-H23, in the assay with NCI-H460, in the assay with NCI-H522 and in the assay with OVCAR-4 was > 100 µM (inactive) each time. Besides, the GI50 in the assay with OVCAR-5, in the assay with PC-3, with SF-295, in the assay with SNB-75, in the assay on T47D and in the assay on UACC-257 was > 100 µM (inactive) in each case. Moreover, the GI50 in the assay with UO-31 is > 100 µM (inactive).

For the compound `COC1C(=O)CCC2(CO2)C1(O)C1(C)OC1CCC(C)C` (stereo not given), the GI50 in the assay on ACHN was 28.2 µM (inactive); in the assay with CCRF-CEM, 40.4 µM (inactive); with HCC 2998, 47.2 µM (inactive); in the assay on K562, 32.5 µM (inactive); in the assay with M14, 20.1 µM (inactive); in the assay with MCF7, 54.8 µM (inactive). Also, the GI50 in the assay on MDA-MB-231 is 15.6 µM (inactive); in the assay on NCI-H23, 22.6 µM (inactive); with NCI-H460, < 0.01 µM (active); in the assay with NCI-H522, > 100 µM (inactive); with OVCAR-4 it was > 100 µM (inactive); in the assay with OVCAR-5, > 100 µM (inactive). The GI50 in the assay with PC-3 is 25.9 µM (inactive); in the assay with SF-295, 13.6 µM (inactive); in the assay with SNB-75, > 100 µM (inactive); in the assay on T47D, 52.8 µM (inactive); in the assay on UACC-257, > 100 µM (inactive); with UO-31, > 100 µM (inactive).

`CC1=CC(=O)/C(=C(/C)NCCN(CCN/C(C)=C2\C(=O)C=C(C)OC2=O)CCN/C(C)=C2\C(=O)C=C(C)OC2=O)C(=O)O1`: the GI50 in the assay with A549, in the assay on ACHN, with CCRF-CEM, in the assay on HCC 2998, with K562 and in the assay with M14 was > 100 µM (inactive) in each case. The GI50 in the assay on MCF7, in the assay with MDA-MB-231, in the assay with NCI-H460, in the assay with NCI-H522, in the assay with OVCAR-4 and in the assay on OVCAR-5 was > 100 µM (inactive) each time. The GI50 in the assay with PC-3, with SF-295, in the assay with SNB-75, with T47D, in the assay on UACC-257 and with UO-31 was > 100 µM (inactive) each time.

For `CC1C(C#N)(C#N)C(C#N)=C(N)C1(Cl)[N+](=O)[O-]` (stereo not given), the GI50 in the assay on A549 is 21.7 µM (inactive); in the assay with ACHN, 11.3 µM (inactive); in the assay with CCRF-CEM it was 2.18 µM (inactive); in the assay with HCC 2998, 17.3 µM (inactive); in the assay with K562, 2.88 µM (inactive); in the assay on M14, 5.07 µM (inactive). The GI50 was 17.2 µM (inactive) in the assay on MCF7; 13.2 µM (inactive) with MDA-MB-231; 18.7 µM (inactive) in the assay with NCI-H23; 2.3 µM (inactive) in the assay on NCI-H522; 12.8 µM (inactive) in the assay with OVCAR-4; 14.9 µM (inactive) in the assay on OVCAR-5. Further, the GI50 in the assay on PC-3 is 17.7 µM (inactive); with SF-295 it was 18.8 µM (inactive); in the assay on SNB-75, 11.7 µM (inactive); in the assay with T47D it was 15.7 µM (inactive); with UACC-257, 12 µM (inactive); in the assay with UO-31 it was 15.5 µM (inactive).

With `CC/C=N\N1C(N)=C(C#N)C(C#N)(C#N)C1CC` (stereo not given), the GI50 with A549 was > 100 µM (inactive); in the assay with ACHN, > 100 µM (inactive); in the assay with CCRF-CEM it was 36.1 µM (inactive); in the assay on HCC 2998, > 100 µM (inactive); with K562 it was 52.7 µM (inactive); with M14 it was > 100 µM (inactive). For the same compound, the GI50 is 36.5 µM (inactive) in the assay with MCF7; > 100 µM (inactive) in the assay on MDA-MB-231; > 100 µM (inactive) with NCI-H23; > 100 µM (inactive) in the assay on NCI-H522; 91.2 µM (inactive) with OVCAR-4; > 100 µM (inactive) with OVCAR-5. Besides, the GI50 in the assay on PC-3 is > 100 µM (inactive); in the assay on SF-295, > 100 µM (inactive); in the assay on SNB-75, 81.8 µM (inactive); with T47D it was > 100 µM (inactive); in the assay with UACC-257 it was > 100 µM (inactive); with UO-31, > 100 µM (inactive).

`CC(=O)C12C[C@](C#N)(N3CCCCCC3)C1C=Cc1ccccc12` (stereo not given in full): the GI50 with A549, in the assay with ACHN, in the assay with CCRF-CEM, with HCC 2998, in the assay on K562 and in the assay with M14 was > 100 µM (inactive) in each case. The GI50 with MCF7, in the assay on MDA-MB-231, in the assay with NCI-H23, in the assay with NCI-H460, in the assay with NCI-H522 and in the assay with OVCAR-4 was > 100 µM (inactive) each time. Moreover, the GI50 with PC-3, in the assay with SF-295, in the assay on SNB-75, in the assay with T47D, in the assay with UACC-257 and in the assay with UO-31 was > 100 µM (inactive) in each case.

Turning to `COc1c(O)cc2c(c1O)C1O[C@H](CO)C(O)[C@H](O)[C@H]1OC2=O` (stereo not given in full), the GI50 in the assay with A549, in the assay on ACHN, with CCRF-CEM, in the assay on HCC 2998, with K562 and with M14 was > 100 µM (inactive) in each case. Also, the GI50 in the assay with MCF7, in the assay on MDA-MB-231, in the assay on NCI-H23, in the assay on NCI-H460, with NCI-H522 and in the assay on OVCAR-4 was > 100 µM (inactive) throughout. The GI50 in the assay with OVCAR-5, in the assay on PC-3, in the assay on SF-295, in the assay on SNB-75, in the assay on T47D and in the assay on UACC-257 was > 100 µM (inactive) in each case.

In the case of `CC(=O)O[C@H]1C(=O)[C@@]2(C)[C@H]([C@H](OC(=O)c3ccccc3)[C@]3(O)C[C@H](OC(=O)[C@H](O)[C@@H](NC(=O)OC(C)(C)C)c4ccco4)C(C)=C1C3(C)C)[C@]1(OC(C)=O)CO[C@@H]1C[C@@H]2O`, the GI50 in the assay on A549 was < 0.005 µM (active); in the assay on ACHN it was 8.2 µM (inactive); with CCRF-CEM, < 0.005 µM (active); in the assay on HCC 2998, < 0.005 µM (active); with K562, < 0.005 µM (active); in the assay with M14 it was 0.0794 µM (active). For the same compound, the GI50 was < 0.005 µM (active) with MCF7; < 0.005 µM (active) in the assay on MDA-MB-231; 0.00966 µM (active) in the assay on NCI-H23; < 0.005 µM (active) in the assay with NCI-H460; < 0.005 µM (active) in the assay with NCI-H522; 4.18 µM (inactive) with OVCAR-4. The GI50 in the assay on OVCAR-5 was 0.00724 µM (active); in the assay with PC-3 it was < 0.005 µM (active); in the assay on SF-295, 0.00687 µM (active); in the assay with SNB-75 it was < 0.005 µM (active); in the assay on T47D it was 0.264 µM (active); in the assay on UACC-257, 11.1 µM (inactive). Further, the GI50 in the assay with UO-31 is 0.0105 µM (active).
